According to patent US10654837B2, “Sulphamoylaryl derivatives and use thereof as medicaments for the treatment of liver fibrosis” (Janssen Pharmaceutica NV, priority 2017, dated 2020):

Molecular target: T1, 5HTR2B (Homo sapiens, UniProt P41595)
T1 construct: host or cells: human Maverick/293 cells
Assay: 5HTR2B antagonist activity, calcium mobilization assay in human Maverick/293 cells (serotonin as agonist)
Assay type: cell-based
Conditions: intracellular calcium, emission 525 nm, read-out: Ca assay IC50
Description: The 5HTR2B antagonist activity was measured using human Maverick/293 cells in a calcium mobilization assay. The measurement starting with plating human Maverick/293 cells (log phase) onto 96-well black and incubate at 37° C. overnight, Followed by starving cells for 2 h by changing complete medium to DMEM without FBS, removing the medium from the 96-well plate. Loading staining calcium buffer into each well and incubated the plate at 37° C. for 50 min. After removal of staining calcium buffer, diluted antagonist were added into the well, incubate 15 to 30 minutes. Dispense serotonin as the 5HTR2B agonists into each well. Intracellular calcium concentration is recorded for 80 seconds by monitoring an emission at a wavelength of 525 nm with an excitation wavelength of 485 nm. Inhibition efficiency of the cell line was determined following the equation: % Inhibition=100%−(D−B)/(S−B)*100%. (S: The peak value in the presence of agonist serotonin; D: The peak value in the presence of different dilution compound or serotonin; B: The peak value in the presence of calcium HBSS buffer only). […] A dose response curve was fitted using nonlinear regression model with a sigmoidal dose response. The IC50 was automatically produced by GraphPad Prism 5.0.

T1 sequence (P41595 whole entry): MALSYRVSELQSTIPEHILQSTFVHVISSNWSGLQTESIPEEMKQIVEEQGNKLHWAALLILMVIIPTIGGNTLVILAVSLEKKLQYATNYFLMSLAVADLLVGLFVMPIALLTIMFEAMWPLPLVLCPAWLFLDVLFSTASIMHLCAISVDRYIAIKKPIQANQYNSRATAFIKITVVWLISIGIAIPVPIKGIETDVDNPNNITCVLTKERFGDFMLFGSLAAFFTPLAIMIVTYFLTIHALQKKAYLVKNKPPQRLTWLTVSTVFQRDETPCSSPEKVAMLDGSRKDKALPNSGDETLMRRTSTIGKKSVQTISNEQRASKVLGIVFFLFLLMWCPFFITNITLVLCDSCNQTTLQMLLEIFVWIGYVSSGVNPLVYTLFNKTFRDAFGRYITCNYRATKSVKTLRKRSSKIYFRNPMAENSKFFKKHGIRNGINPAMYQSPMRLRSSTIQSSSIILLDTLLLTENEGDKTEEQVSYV

Row | IC50 [nM] | Compound
1 | 159 | COc1ccc(S(=O)(=O)N[C@H]2C[C@H](O)C2)cc1C(=O)Nc1ccc(F)cn1 [Compound 156]
2 | 1.3 | COc1ccc(S(=O)(=O)N[C@H]2CCOC2)cc1C(=O)Nc1ccc(F)c(F)c1 [Compound 111, (S)—N-(3,4-Difluorophenyl)-2-methoxy-5-(N-(tetrahydrofuran-3-yl)sulfamoyl) benzamide]
3 | 2.8 | COc1ccc(S(=O)(=O)N[C@H]2C[C@@H](O)C2)cc1C(=O)Nc1ccc(F)c(C)n1 [Compound 141]
4 | 0.1 | COc1cc(F)ccc1NC(=O)c1cc(S(=O)(=O)N[C@H]2CCOC2)ccc1OC [Compound 135, (S)—N-(4-fluoro-2-methoxyphenyl)-2-methoxy-5-(N-(tetrahydrofuran-3-yl)sulfamoyl)benzamide]
5 | 2.1 | COc1ccc(S(=O)(=O)N[C@H]2CCOC2)cc1C(=O)Nc1c(F)cccc1OC [Compound 130, (S)—N-(2-Fluoro-6-methoxyphenyl)-2-methoxy-5-(N-(tetrahydrofuran-3-yl)sulfamoyl)benzamide]
6 | 0.3 | COc1ccc(S(=O)(=O)N[C@H]2CCNC2)cc1C(=O)Nc1ccc(F)cc1 [Compound 178, (S)—N-(4-Fluorophenyl)-2-methoxy-5-(N-(pyrrolidin-3-yl)sulfamoyl)benzamide]
7 | 0.7 | COc1ccc(S(=O)(=O)N[C@H]2CCOC2)cc1C(=O)Nc1ccc(F)c(C)c1 [Compound 4, (S)—N-(4-Fluoro-3-methylphenyl)-2-methoxy-5-(N-(tetrahydrofuran-3-yl)sulfamoyl)benzamide]
8 | 4.6 | COc1ccc(S(=O)(=O)NC(C)C(F)(F)F)cc1C(=O)Nc1ccc(F)c(C)n1 (single isomer, unassigned) [Compound 29b, (R*)—N-(5-Fluoro-6-methylpyridin-2-yl)-2-methoxy-5-(N-(1,1,1-trifluoropropan-2-yl)sulfamoyl)benzamide]
9 | 1.4 | COc1ccc(S(=O)(=O)N[C@H]2CCOC2)cc1C(=O)Nc1ncc(F)cc1Cl [Compound 119]
10 | 3.4 | COc1ccc(S(=O)(=O)N[C@@H](C)CO)cc1C(=O)Nc1ccc(F)cc1 [Compound 49a, (S)—N-(4-Fluorophenyl)-5-(N-(1-hydroxypropan-2-yl)sulfamoyl)-2-methoxybenzamide]

Continued, compound first:

Row | Compound | IC50 [nM]
11 | COc1ccc(S(=O)(=O)N[C@@H]2CCNC2)cc1C(=O)Nc1ccc(F)c(C(F)F)c1 [Compound 181] | 4.5
12 | COc1ccc(S(=O)(=O)N[C@H]2CCOC2)cc1C(=O)Nc1ccccc1Br [Compound 123, (S)—N-(2-Bromophenyl)-2-methoxy-5-(N-(tetrahydrofuran-3-yl)sulfamoyl) benzamide] | 0.2
13 | COc1ccc(S(=O)(=O)N[C@@H](C)C(N)=O)cc1C(=O)Nc1ccc(F)c(C)c1 [Compound 12a, (S)-5-(N-(1-Amino-1-oxopropan-2-yl)sulfamoyl)-N-(4-fluoro-3-methylphenyl)-2-methoxybenzamide] | 1.8
14 | COc1ccc(S(=O)(=O)N(C)[C@H]2CCOC2)cc1C(=O)Nc1ccc(F)c(C)n1 [Compound 189, (S)—N-(5-fluoro-6-methylpyridin-2-yl)-2-methoxy-5-(N-methyl-N-(tetrahydrofuran-3-yl)sulfamoyl) benzamide] | 14
15 | COc1ccc(S(=O)(=O)N[C@H](C)CC#N)cc1C(=O)Nc1ccccc1Cl (single isomer, unassigned) [Compound 60b, (R*)—N-(2-chlorophenyl)-5-(N-(1-cyanopropan-2-yl)sulfamoyl)-2-methoxy benzamide] | 0.4
16 | COc1ccc(S(=O)(=O)NCC(O)C(F)(F)F)cc1C(=O)Nc1ccc(F)cc1 (single isomer, unassigned) [Compound 44b, (R*)—N-(4-Fluorophenyl)-2-methoxy-5-(N-(3,3,3-trifluoro-2-hydroxypropyl)sulfamoyl)benzamide] | 3.2
17 | COc1ccc(NS(=O)(=O)[C@H]2CCOC2)cc1C(=O)Nc1ccc(F)c(C)c1 (single isomer, unassigned) [Compound 202a, (S*)N-4-fluoro-3-methylphenyl)-2-methoxy-5-(tetrahydrofuran-3-sulfonamido)benzamide] | 1
18 | COCC(C)NS(=O)(=O)c1ccc(OC)c(C(=O)Nc2ccc(F)c(C(F)F)c2)c1 (single isomer, unassigned) [Compound 32a, (R*)—N-(3-(Difluoromethyl)-4-fluorophenyl)-2-methoxy-5-(N-(1-methoxypropan-2-yl)sulfamoyl)benzamide] | 1.8
19 | COc1ccc(S(=O)(=O)N[C@H]2CCOC2)cc1C(=O)Nc1ccn(C)n1 [Compound 79, (S)-2-Methoxy-N-(1-methyl-1H-pyrazol-3-yl)-5-(N-(tetrahydrofuran-3-yl)sulfamoyl)benzamide] | 98
20 | COc1ccc(S(=O)(=O)N[C@H](C)CO)cc1C(=O)Nc1ccc(F)c(C)c1 [Compound 10b, (R)—N-(4-Fluoro-3-methylphenyl)-5-(N-(1-hydroxypropan-2-yl)sulfamoyl)-2-methoxybenzamide] | 12
21 | COc1ccc(S(=O)(=O)N[C@H]2CCOC2)cc1C(=O)Nc1cc(F)cc(F)c1Cl [Compound 96, (S)—N-(2-Chloro-3,5-difluorophenyl)-2-methoxy-5-(N-(tetrahydrofuran-3-yl)sulfamoyl)benzamide] | 84
22 | COc1ccc(S(=O)(=O)N[C@@H]2CC[C@H](O)C2)cc1C(=O)Nc1ccc(F)c(C(F)F)c1 (single isomer, unassigned) [Compound 33a, N-(3-(Difluoromethyl)-4-fluorophenyl)-5-(N-((cis)-3-hydroxycyclopentyl)sulfamoyl)-2-methoxybenzamide] | 0.4
23 | COc1ccc(S(=O)(=O)NC2CCC2)cc1C(=O)Nc1ccc(F)c(C)c1 [Compound 63, 5-(N-Cyclobutylsulfamoyl)-N-(4-fluoro-3-methylphenyl)-2-methoxybenzamide] | 1.3
24 | CCOc1ccccc1NC(=O)c1cc(S(=O)(=O)N[C@H]2CCOC2)ccc1OC [Compound 136, (S)—N-(2-ethoxyphenyl)-2-methoxy-5-(N-(tetrahydrofuran-3-yl)sulfamoyl) benzamide] | 0.4
25 | COc1ccc(S(=O)(=O)N[C@H]2CCOC2)cc1C(=O)Nc1ccc(C#N)cc1F [Compound 73, (S)—N-(4-Cyano-2-fluorophenyl)-2-methoxy-5-(N-(tetrahydrofuran-3-yl)sulfamoyl)benzamide] | 5.5
26 | COc1ccc(S(=O)(=O)N[C@H]2CCOC2)cc1C(=O)Nc1ccc(F)cn1 [Compound 116, (S)—N-(5-Fluoropyridin-2-yl)-2-methoxy-5-(N-(tetrahydrofuran-3-yl)sulfamoyl) benzamide] | 5.4
27 | COc1ccc(S(=O)(=O)N[C@H]2CCOC2)cc1C(=O)Nc1cccc(F)c1 [Compound 100, (S)—N-(3-Fluorophenyl)-2-methoxy-5-(N-(tetrahydrofuran-3-yl)sulfamoyl) benzamide] | 4.6
28 | COc1ccc(S(=O)(=O)NC2COC[C@H]2O)cc1C(=O)Nc1ccccc1Cl (stereo in doubt) [Compound 56b, N-(2-Chlorophenyl)-5-(N-((cis)-4-hydroxytetrahydrofuran-3-yl)sulfamoyl)-2-methoxybenzamide] | 0.2
29 | COc1ccc(S(=O)(=O)N[C@@H](C)C(N)=O)cc1C(=O)Nc1ccc(F)c(C(F)F)c1 [Compound 34a, (S)-5-(N-(1-Amino-1-oxopropan-2-yl)sulfamoyl)-N-(3-(difluoromethyl)-4-fluorophenyl)-2-methoxybenzamide] | 1.4
